Experimental data from ChEMBL document CHEMBL1138088, “Design and synthesis of selective keto-1,2,4-oxadiazole-based tryptase inhibitors” (Bioorg Med Chem Lett, 2006).

Legend:
[1] = molecular target: Tryptase beta-1 (Homo sapiens, UniProt Q15661); experiment: Inhibition of human B tryptase; conditions: read-out: Ki app
[2] = molecular target: Trypsin (Homo sapiens, UniProt P07477+P07478+P35030); experiment: Inhibition of trypsin; format: protein assay
[3] = species: Homo sapiens; experiment: Selectivity for tryptase over trypsin
[4] = molecular target: Prothrombin (Homo sapiens, UniProt P00734); experiment: Inhibition of thrombin; conditions: read-out: Ki app
[5] = molecular target: Plasminogen (Homo sapiens, UniProt P00747); experiment: Inhibition of plasmin; conditions: read-out: Ki app
[6] = molecular target: Plasma kallikrein (Homo sapiens, UniProt P03952); experiment: Inhibition of kallikrein; conditions: read-out: Ki app
[7] = molecular target: Vitamin K-dependent protein C (Homo sapiens, UniProt P04070); experiment: Inhibition of APC; conditions: read-out: Ki app
[8] = molecular target: Chymotrypsinogen B (Homo sapiens, UniProt P17538); experiment: Inhibition of chymotrypsin; conditions: read-out: Ki app
[9] = Inhibition of elastase; design: species or system Homo sapiens; conditions: read-out: Ki app
[10] = molecular target: T1, Chymase (Homo sapiens, UniProt P23946); experiment: Inhibition of chymase; conditions: read-out: Ki app
T1 sequence (P23946 whole entry): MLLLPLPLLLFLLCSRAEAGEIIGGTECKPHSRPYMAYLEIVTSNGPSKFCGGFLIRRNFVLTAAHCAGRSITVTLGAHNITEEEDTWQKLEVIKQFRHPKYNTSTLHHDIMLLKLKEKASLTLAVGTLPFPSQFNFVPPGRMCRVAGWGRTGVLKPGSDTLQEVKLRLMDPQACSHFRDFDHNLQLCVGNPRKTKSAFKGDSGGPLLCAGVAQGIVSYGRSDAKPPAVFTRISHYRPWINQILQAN

[11] = molecular target: Urokinase-type plasminogen activator (Homo sapiens, UniProt P00749); experiment: Inhibition of urokinase; conditions: read-out: Ki app
[12] = molecular target: T2, Granzyme K (Homo sapiens, UniProt P49863); experiment: Inhibition of granzyme K; conditions: read-out: Ki app
T2 sequence (P49863 whole entry): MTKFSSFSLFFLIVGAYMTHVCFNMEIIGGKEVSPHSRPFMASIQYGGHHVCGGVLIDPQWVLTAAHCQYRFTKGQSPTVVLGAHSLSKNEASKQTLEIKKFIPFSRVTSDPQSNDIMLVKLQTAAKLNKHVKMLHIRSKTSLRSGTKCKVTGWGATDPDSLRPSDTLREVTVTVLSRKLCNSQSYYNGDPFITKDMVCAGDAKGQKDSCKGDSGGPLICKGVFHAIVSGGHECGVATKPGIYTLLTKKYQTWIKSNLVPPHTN

[13] = molecular target: T3, Cathepsin G (Homo sapiens, UniProt P08311); experiment: Inhibition of cathepsin G; conditions: read-out: Ki app
T3 sequence (P08311 whole entry): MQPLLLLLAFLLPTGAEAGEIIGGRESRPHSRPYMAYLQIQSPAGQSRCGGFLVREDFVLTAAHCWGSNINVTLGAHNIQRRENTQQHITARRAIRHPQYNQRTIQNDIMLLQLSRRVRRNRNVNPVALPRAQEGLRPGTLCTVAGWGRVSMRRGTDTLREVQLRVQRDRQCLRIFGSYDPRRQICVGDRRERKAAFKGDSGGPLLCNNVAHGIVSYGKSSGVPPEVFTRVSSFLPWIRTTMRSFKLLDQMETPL

[14] = molecular target: T4, Coagulation factor VII (Homo sapiens, UniProt P08709); experiment: Inhibition of factor 7a; conditions: read-out: Ki app
T4 sequence (P08709 whole entry): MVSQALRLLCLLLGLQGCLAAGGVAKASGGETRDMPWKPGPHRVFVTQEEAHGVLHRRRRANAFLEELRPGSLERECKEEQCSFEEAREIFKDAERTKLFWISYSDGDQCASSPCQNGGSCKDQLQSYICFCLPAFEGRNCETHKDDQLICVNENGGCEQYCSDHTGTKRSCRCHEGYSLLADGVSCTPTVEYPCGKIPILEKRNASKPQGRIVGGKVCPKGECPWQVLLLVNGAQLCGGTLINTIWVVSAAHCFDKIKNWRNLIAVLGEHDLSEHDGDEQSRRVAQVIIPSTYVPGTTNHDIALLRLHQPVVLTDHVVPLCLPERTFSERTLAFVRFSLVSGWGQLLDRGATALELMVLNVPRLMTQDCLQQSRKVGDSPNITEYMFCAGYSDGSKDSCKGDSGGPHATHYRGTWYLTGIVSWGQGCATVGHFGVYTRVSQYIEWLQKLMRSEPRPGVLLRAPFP

[15] = molecular target: Coagulation factor X (Homo sapiens, UniProt P00742); experiment: Inhibition of factor 10a; conditions: read-out: Ki app
[16] = molecular target: Coagulation factor IX (Homo sapiens, UniProt P00740); experiment: Inhibition of factor 9a; conditions: read-out: Ki app
[17] = molecular target: Coagulation factor XI (Homo sapiens, UniProt P03951); experiment: Inhibition of factor 11a; conditions: read-out: Ki app
[18] = Steady state volume of distribution in rat at 0.5 mg/kg, iv; format: ADME, organism-based; design: dose 0.5 mg/kg, route intravenous; conditions: in vivo, read-out: Vss
[19] = Mean residence time in rat at 0.5 mg/kg, iv; format: ADME, organism-based; design: dose 0.5 mg/kg, route intravenous; conditions: in vivo
[20] = AUC in rat at 0.5 mg/kg, iv; format: ADME, organism-based; design: dose 0.5 mg/kg, route intravenous; conditions: plasma
[21] = Terminal half life in rat at 0.5 mg/kg, iv; format: ADME, organism-based; design: dose 0.5 mg/kg, route intravenous; conditions: in vivo
[22] = Oral absorption in rat at 5 mg/kg, po; format: ADME, organism-based; design: dose 5 mg/kg, route oral; conditions: in vivo
[23] = Oral bioavailability in rat at 5 mg/kg, po; format: ADME, organism-based; conditions: in vivo
[24] = Terminal half life in rat at 5 mg/kg, po; format: ADME, organism-based; design: dose 5 mg/kg, route oral; conditions: in vivo
[25] = Cmax in rat at 0.5 mg/kg, iv; format: ADME, organism-based; design: dose 0.5 mg/kg, route intravenous; conditions: in vivo
[26] = Clearance in rat at 0.5 mg/kg, iv; format: ADME, organism-based; design: dose 0.5 mg/kg, route intravenous; conditions: in vivo
[27] = Central volume of distribution in rat at 0.5 mg/kg, iv; format: ADME, organism-based; design: dose 0.5 mg/kg, route intravenous; conditions: in vivo, read-out: Vc

Sequence of Tryptase beta-1 (Q15661 whole entry): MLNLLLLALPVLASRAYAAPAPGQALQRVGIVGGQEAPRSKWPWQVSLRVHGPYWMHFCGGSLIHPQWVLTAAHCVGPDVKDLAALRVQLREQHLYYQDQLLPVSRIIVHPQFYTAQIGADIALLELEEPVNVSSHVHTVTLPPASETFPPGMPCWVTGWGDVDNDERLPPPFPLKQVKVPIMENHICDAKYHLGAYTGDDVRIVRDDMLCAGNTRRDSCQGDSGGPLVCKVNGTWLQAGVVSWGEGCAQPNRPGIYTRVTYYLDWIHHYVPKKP
Sequence of Vitamin K-dependent protein C (P04070 43-197 limits assumed): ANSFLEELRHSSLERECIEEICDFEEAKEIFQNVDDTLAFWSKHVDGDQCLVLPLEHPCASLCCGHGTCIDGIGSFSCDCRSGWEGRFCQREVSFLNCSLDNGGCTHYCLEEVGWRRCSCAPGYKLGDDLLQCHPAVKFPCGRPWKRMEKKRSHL
Sequence of Vitamin K-dependent protein C (P04070 212-461 limits assumed): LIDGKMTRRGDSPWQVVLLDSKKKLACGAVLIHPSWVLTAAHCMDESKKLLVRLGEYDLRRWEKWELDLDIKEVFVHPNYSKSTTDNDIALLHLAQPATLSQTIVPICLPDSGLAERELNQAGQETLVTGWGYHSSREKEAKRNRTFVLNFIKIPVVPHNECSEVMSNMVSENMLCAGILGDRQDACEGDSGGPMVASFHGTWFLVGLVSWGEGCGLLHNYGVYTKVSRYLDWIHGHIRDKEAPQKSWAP
Sequence of Plasminogen (P00747 97-580 limits assumed): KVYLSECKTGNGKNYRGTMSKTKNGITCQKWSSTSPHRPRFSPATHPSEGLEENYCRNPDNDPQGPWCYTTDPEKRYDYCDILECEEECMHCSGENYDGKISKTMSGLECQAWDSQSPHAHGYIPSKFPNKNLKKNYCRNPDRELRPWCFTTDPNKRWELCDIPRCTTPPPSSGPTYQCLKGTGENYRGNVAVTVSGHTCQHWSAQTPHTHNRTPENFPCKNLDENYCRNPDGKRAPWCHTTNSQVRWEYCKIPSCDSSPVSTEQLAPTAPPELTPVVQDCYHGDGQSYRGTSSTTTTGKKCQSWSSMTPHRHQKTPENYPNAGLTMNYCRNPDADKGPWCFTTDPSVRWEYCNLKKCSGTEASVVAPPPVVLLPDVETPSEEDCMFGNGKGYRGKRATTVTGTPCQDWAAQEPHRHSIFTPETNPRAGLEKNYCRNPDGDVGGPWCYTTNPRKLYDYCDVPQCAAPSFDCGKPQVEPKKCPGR
Sequence of Plasminogen (P00747 581-810 limits assumed): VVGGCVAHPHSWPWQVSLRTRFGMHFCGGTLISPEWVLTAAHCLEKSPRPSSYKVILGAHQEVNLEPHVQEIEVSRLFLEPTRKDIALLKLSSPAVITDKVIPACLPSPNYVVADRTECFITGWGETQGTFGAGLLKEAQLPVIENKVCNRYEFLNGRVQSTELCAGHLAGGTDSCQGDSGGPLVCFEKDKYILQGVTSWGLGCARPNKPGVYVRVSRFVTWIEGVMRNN
Sequence of Plasma kallikrein (P03952 20-390 limits assumed): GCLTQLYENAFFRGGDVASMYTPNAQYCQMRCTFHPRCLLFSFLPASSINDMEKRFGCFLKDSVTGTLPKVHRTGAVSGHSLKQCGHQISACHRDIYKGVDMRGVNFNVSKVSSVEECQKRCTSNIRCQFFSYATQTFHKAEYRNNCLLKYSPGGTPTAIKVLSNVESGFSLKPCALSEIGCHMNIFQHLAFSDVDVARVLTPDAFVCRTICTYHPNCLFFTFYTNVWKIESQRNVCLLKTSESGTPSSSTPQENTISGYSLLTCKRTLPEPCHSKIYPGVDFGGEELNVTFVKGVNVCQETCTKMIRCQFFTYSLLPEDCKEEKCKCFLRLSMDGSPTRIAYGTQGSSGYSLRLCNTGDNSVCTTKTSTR
Sequence of Plasma kallikrein (P03952 391-638 limits assumed): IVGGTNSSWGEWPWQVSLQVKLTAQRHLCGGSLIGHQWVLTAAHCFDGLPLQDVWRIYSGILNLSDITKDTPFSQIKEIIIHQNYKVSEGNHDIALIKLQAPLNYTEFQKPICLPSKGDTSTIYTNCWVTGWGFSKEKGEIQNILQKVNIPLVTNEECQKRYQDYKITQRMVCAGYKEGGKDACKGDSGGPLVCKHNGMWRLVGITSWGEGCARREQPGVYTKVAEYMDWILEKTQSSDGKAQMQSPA
Sequence of Chymotrypsinogen B (P17538 34-164 limits assumed, other chains not shown): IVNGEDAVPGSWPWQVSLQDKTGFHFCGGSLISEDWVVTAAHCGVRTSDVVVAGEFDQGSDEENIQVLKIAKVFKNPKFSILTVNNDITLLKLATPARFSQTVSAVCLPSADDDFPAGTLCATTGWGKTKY
Sequence of Chymotrypsinogen B (P17538 167-263 limits assumed, other chains not shown): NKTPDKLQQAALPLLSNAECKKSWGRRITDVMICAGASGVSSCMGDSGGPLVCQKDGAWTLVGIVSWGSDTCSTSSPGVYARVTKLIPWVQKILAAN
Sequence of Coagulation factor IX (P00740 47-191 limits assumed): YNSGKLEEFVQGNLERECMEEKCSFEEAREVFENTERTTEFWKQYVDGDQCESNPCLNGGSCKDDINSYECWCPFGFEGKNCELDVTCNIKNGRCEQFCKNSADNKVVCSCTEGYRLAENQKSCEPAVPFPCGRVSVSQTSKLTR
Sequence of Coagulation factor IX (P00740 227-461 limits assumed): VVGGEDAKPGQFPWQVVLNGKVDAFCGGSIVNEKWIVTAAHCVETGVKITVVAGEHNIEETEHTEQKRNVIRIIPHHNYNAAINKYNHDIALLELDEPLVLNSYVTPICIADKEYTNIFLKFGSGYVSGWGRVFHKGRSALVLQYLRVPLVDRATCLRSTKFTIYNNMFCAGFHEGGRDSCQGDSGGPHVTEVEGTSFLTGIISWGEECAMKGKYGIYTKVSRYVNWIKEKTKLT
Sequence of Coagulation factor X (P00742 41-179 limits assumed): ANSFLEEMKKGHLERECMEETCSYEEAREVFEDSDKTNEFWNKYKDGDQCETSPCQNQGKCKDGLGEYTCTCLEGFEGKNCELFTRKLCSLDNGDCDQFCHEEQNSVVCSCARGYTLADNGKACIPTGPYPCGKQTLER
Sequence of Coagulation factor X (P00742 235-488 limits assumed): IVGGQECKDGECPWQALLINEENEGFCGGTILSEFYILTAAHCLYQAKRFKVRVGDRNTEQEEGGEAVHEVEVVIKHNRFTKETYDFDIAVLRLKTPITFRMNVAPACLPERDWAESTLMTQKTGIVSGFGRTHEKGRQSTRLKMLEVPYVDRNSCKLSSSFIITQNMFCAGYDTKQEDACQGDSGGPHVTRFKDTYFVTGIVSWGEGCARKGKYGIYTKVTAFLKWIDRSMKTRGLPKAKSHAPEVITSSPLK
Sequence of Coagulation factor XI (P03951 19-387 limits assumed): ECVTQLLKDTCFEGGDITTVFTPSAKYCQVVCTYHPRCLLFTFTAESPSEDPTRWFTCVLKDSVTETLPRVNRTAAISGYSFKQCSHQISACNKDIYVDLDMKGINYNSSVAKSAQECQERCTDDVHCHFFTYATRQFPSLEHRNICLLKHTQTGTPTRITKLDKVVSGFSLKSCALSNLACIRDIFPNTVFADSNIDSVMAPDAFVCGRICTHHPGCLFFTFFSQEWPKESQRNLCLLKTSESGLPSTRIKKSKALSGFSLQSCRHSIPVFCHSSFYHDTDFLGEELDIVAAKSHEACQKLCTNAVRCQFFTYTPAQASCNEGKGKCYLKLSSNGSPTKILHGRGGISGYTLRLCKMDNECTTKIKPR
Sequence of Coagulation factor XI (P03951 388-625 limits assumed): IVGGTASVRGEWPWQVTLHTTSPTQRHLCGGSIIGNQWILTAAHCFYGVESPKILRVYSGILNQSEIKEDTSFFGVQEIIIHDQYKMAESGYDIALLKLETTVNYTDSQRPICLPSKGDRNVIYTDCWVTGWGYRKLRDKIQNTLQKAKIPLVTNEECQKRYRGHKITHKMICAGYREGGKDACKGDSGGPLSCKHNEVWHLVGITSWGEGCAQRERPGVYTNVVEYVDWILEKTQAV

| SMILES | Ki [1] | Ki app [2] | Selectivity ratio [3] | further results |
| --- | --- | --- | --- | --- |
| CC(C)(C)C(=O)N[C@@H](CCCCN)C(=O)c1noc(Cc2ccc(OCCc3ccc(Cl)c(Cl)c3)cc2)n1.Cl | 3.75 nM | 0.625 µM | 167 |  |
| Cl.NCCCC[C@H](NC(=O)N1CCCCC1)C(=O)c1noc(Cc2ccc(OCCc3ccc(Cl)c(Cl)c3)cc2)n1 | 9.2 nM | 1.4 µM | 152 |  |
| Cl.NCCCC[C@H](NC(=O)c1ccccc1F)C(=O)c1noc(Cc2ccc(OCCc3ccc(Cl)c(Cl)c3)cc2)n1 | 6.2 nM | 1.1 µM | 177 |  |
| CCN(CC)C(=O)N[C@@H](CCCCN)C(=O)c1noc(Cc2ccc(OCCc3ccc(Cl)c(Cl)c3)cc2)n1.Cl | 18 nM | 2.4 µM | 133 |  |
| CCOC(=O)N[C@@H](CCCCN)C(=O)c1noc(Cc2ccc(OCCc3ccc(Cl)c(Cl)c3)cc2)n1.Cl | 4.7 nM | 0.38 µM | 81 |  |
| Cl.NCCCC[C@H](NC(=O)c1ccco1)C(=O)c1noc(Cc2ccc(OCCc3ccc(Cl)c(Cl)c3)cc2)n1 | 2.3 nM | 0.48 µM | 209 |  |
| CCOC(=O)N[C@@H](CCCCN)C(=O)c1noc(Cc2ccc(OCCc3ccccc3)cc2)n1 | 5.4 nM | 0.19 µM |  | Ki [4]: 64 µM; Ki [5]: 430 nM; Ki [6]: 43 µM; Ki [7]: > 150 µM; Ki [8]: > 150 µM; Ki [9]: > 150 µM; Ki [10]: > 150 µM; Ki [11]: > 150 µM; Ki [12]: > 150 µM |
| Cl.NCCCC[C@H](NC(=O)N1CCOCC1)C(=O)c1noc(Cc2ccc(OCCc3ccc(Cl)c(Cl)c3)cc2)n1 | 5.7 nM | 0.87 µM | 153 |  |
| Cl.NCCCC[C@H](NC(=O)c1ccc(F)cc1F)C(=O)c1noc(Cc2ccc(OCCc3ccc(Cl)c(Cl)c3)cc2)n1 | 3.25 nM | 1.15 µM | 354 |  |
| CC(C)C(=O)N[C@@H](CCCCN)C(=O)c1noc(Cc2ccc(OCCc3ccc(Cl)c(Cl)c3)cc2)n1.Cl | 6.8 nM | 0.12 µM | 18 |  |
| Cl.NCCCC[C@H](NC(=O)C(F)(F)F)C(=O)c1noc(Cc2ccc(OCCc3ccc(Cl)c(Cl)c3)cc2)n1 | 2.9 nM | 0.22 µM | 76 |  |
| COCCOC(=O)N[C@@H](CCCCN)C(=O)c1noc(Cc2ccc(OCCc3ccc(Cl)c(Cl)c3)cc2)n1.Cl | 5 nM | 0.5 µM | 100 |  |
| NCCCC[C@H](NC(=O)C1CC1)C(=O)c1noc(Cc2ccc(OCCc3ccc(Cl)c(Cl)c3)cc2)n1 | 4.6 nM |  | 10 |  |
| CN(C)C(=O)N[C@@H](CCCCN)C(=O)c1noc(Cc2ccc(OCCc3ccc(Cl)c(Cl)c3)cc2)n1.Cl | 9.6 nM | 0.85 µM | 89 |  |
| COC(=O)N[C@@H](CCCCN)C(=O)c1noc(Cc2ccc(OCCc3ccc(Cl)c(Cl)c3)cc2)n1.Cl | 17 nM | 2.2 µM | 129 |  |
| Cl.NCCCC[C@H](NC(=O)c1ccc(Cl)cc1)C(=O)c1noc(Cc2ccc(OCCc3ccc(Cl)c(Cl)c3)cc2)n1 | 6.55 nM | 2.55 µM | 389 |  |
| CCCCCC(=O)N[C@@H](CCCCN)C(=O)c1noc(Cc2ccc(OCCc3ccc(Cl)c(Cl)c3)cc2)n1.Cl | 9.8 nM | 0.18 µM | 18 |  |
| Cl.NCCCC[C@H](NC(=O)c1ccc(F)c(F)c1)C(=O)c1noc(Cc2ccc(OCCc3ccc(Cl)c(Cl)c3)cc2)n1 |  | 3.3 µM |  | Ki [4]: > 150 µM; Ki [5]: 910 nM; Ki [6]: 83 µM; Ki [7]: > 150 µM; Ki [8]: > 150 µM; Ki [9]: > 150 µM; Ki [10]: > 150 µM; Ki [11]: > 150 µM; Ki [12]: > 150 µM; Ki [13]: > 150 µM; Ki [14]: > 150 µM; Ki [15]: > 150 µM; Ki [16]: > 150 µM; Ki [17]: > 150 µM |
| Cl.NCCCC[C@H](NC(=O)c1ccc(F)cc1)C(=O)c1noc(Cc2ccc(OCCc3ccc(Cl)c(Cl)c3)cc2)n1 |  | 1.1 µM |  | Vd [18]: 7.8 L/kg; MRT [19]: 2.88 h; AUC [20]: 0.3 µM·h; half-life [21]: 174 min; Fa [22]: 12%; bioavailability [23]: 9%; half-life [24]: 135 min; Cmax [25]: 1010 nM; clearance [26]: 45 mL/min/kg; Vd [27]: 0.457 L/kg |
| Cl.NCCCC[C@H](NC(=O)c1cccc(F)c1)C(=O)c1noc(Cc2ccc(OCCc3ccc(Cl)c(Cl)c3)cc2)n1 | 5.8 nM | 1.7 µM | 293 |  |
| Cc1cc(C(=O)N[C@@H](CCCCN)C(=O)c2noc(Cc3ccc(OCCc4ccc(Cl)c(Cl)c4)cc3)n2)c(C)o1.Cl | 46 nM | 3.9 µM | 85 |  |
| COCC(=O)N[C@@H](CCCCN)C(=O)c1noc(Cc2ccc(OCCc3ccc(Cl)c(Cl)c3)cc2)n1.Cl | 3.7 nM | 0.19 µM | 51 |  |
| Cl.NCCCC[C@H](NC(=O)C1CCCC1)C(=O)c1noc(Cc2ccc(OCCc3ccc(Cl)c(Cl)c3)cc2)n1 | 6.5 nM | 0.3 µM | 46 |  |
| CC(C)OC(=O)N[C@@H](CCCCN)C(=O)c1noc(Cc2ccc(OCCc3ccc(Cl)c(Cl)c3)cc2)n1.Cl | 5 nM | 0.415 µM | 83 |  |
| Cl.NCCCC[C@H](NC(=O)N1CCCC1)C(=O)c1noc(Cc2ccc(OCCc3ccc(Cl)c(Cl)c3)cc2)n1 | 32 nM | 3.8 µM | 119 |  |
| Cl.NCCCC[C@H](NC(=O)C1CCOC1)C(=O)c1noc(Cc2ccc(OCCc3ccc(Cl)c(Cl)c3)cc2)n1 (stereo partly drawn) | 22 nM | 1.1 µM | 50 |  |
| CC(C)(C)COC(=O)N[C@@H](CCCCN)C(=O)c1noc(Cc2ccc(OCCc3ccc(Cl)c(Cl)c3)cc2)n1.Cl | 11 nM | 1.9 µM | 173 |  |
